Assay results as given in patent US20220143061A1, “3'3'-CYCLIC DINUCLEOTIDES AND PRODRUGS THEREOF” (INSTITUTE OF ORGANIC CHEMISTRY AND BIOCHEMISTRY ASCR, V.V.I., priority 2019, published 2022).
Where two headings read alike, the source gives them in different places.

Columns and labels:
[1] = test system: peripheral blood mononuclear cell (PBMC); assay: Peripheral blood mononuclear cell assay (cytokine levels); assay type: cell-based; conditions: 1 h with compound, wash, 15 hour incubation, average of one to four donors
Description: Selected compounds were tested in an in vitro peripheral blood mononuclear cell (PBMC) assay. […] Serially diluted tested compounds were added to wells in 50 μl of cultivation medium and cell were incubated with compounds for 1 h at 37° C. with 5% CO2. Plates with cells were then spun 500 g for 5 minutes and medium was removed. Cells were washed twice with the cell culture medium by the use of centrifugation and gently resuspended in 100 μl medium without compounds. After 15 hour incubation at 37° C. with 5% CO2, the cell culture medium was collected and the levels of interferon-alpha (INF-α), interferon-gamma (INF-γ) and tumor necrosis factor-alpha (TNF-α) were determined with ProcartaPlex Assays (ThermoFisher, Waltham, USA) and MAGPIX System (Merck KGaA, Darmstadt, Germany). […] Values reported are an average of runs from one to four donors.

[2] = target: T1, human wild type STING (WT STING) (Homo sapiens, UniProt Q86WV6, H232R); assay: 293T WT STING standard reporter assay; assay type: cell-based; conditions: no digitonin, 7 hours, ISRE firefly luciferase
T1 construct: host or cells: 293T cells (ATCC CRL-3216), stably double transfected with pUNO1-hSTING-WT and pGL64.27-4×ISRE
From the text: Two complementary oligonucleotides of the sequence […] […] […] […] […] The oligonucleotides were mixed in equal molar amounts, hybridized, and cleaved by restriction endonucleases HindIII (cat. #. R0104S, NEB, Ipswich, USA) and BglII (cat. #R0144S, NEB, Ipswich, USA). Ultimately, they were ligated into plasmid pGL4.27 (cat. #E6651, Promega, Madison, USA) linearized with the same enzymes. As result the sequence with four ISRE sites was placed upstream of the minimum promoter of firefly luciferase reporter gene.
After 5 minutes incubation at room temperature (RT), 250 μL of the mixture was added dropwise to the cells in one well. Cells were incubated 36 hours at 37° C. with 5% CO2, and then detached with 0.05% Trypsin and 0.22 g/L EDTA (both cat. #L0941, Biowest, Riverside, USA).
Transfected cells were seeded onto poly-D-lysine coated six well plates at density 50,000 cells per 1 cm^2 in DMEM medium with high glucose containing 10% heat inactivated FBS, 30 μg/mL blasticidin (cat. #ant-b1-05, InvivoGen, San Diego, USA), 0.06 mg/ml Penicillin G and 0.1 mg/ml Streptomycin Sulfate (both cat. #. L0018, Biowest, Riverside, USA). The medium was replenished every 3-4 days until visible colonies of cells resistant to blasticidin were formed.
Blasticidin resistant cells stably expressing WT STING were further transfected with pGL64.27-4×ISRE plasmid following the same procedure as described above. […] Homogeneous culture of stably double transfected cells was prepared by limiting dilution of cells in 96 well plates and wells with cells were selected that originated from a single cell.
The medium was removed the next day and three-fold serial dilutions of compounds in 100 μl medium were added to the cells. The plates were incubated for 7 hours at 37° C. with 5% CO2. Next 50 μl of the medium was removed from wells, and 30 μl of ONE-Glo™ Luciferase Assay System reagent (cat. #E6120, Promega, Madison, USA) was added to each well. Luminescence was read on Synergy H1 (Biotek, Winooski, USA).

[3] = 293T wtSTING-FL cells, read-out: 293T WT STING EC50
[4] = 293T WT STING EC50, 293T wtSTING-FL cells

T1 sequence (Q86WV6 whole entry H232R): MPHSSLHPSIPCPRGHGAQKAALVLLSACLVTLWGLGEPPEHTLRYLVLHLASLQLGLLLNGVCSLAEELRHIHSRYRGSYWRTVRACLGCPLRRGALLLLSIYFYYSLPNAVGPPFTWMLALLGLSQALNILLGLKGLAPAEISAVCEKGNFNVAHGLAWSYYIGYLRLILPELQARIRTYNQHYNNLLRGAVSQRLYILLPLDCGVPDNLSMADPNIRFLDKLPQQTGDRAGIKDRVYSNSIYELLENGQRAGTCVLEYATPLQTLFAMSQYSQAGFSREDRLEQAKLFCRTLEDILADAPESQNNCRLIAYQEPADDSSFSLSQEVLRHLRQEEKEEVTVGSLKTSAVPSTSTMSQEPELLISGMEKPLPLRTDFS

Row | EC50 [2, 3] | SMILES | EC50 ([1]; read-out: PBMC EC50 IFN-α) | EC50 ([1]; read-out: PBMC EC50 IFN-γ) | EC50 ([1]; read-out: PBMC EC50 TNF-α) | EC50 [2, 4]
1 | 30 nM | CC(C)(C)C(=O)OCOP1(=O)CO[C@H]2[C@@H](F)[C@H](n3cnc4c(N)ncnc43)O[C@@H]2COP(=O)(OCOC(=O)C(C)(C)C)O[C@H]2[C@@H](F)[C@H](n3cnc4c(N)ncnc43)O[C@@H]2CO1 (mixture of isomers) [Compound 41b, {[(1R,6R,8R,9R,10R,16R,18R,19R)-8,18-bis(6-amino-9H-purin-9-yl)-13-{[(2,2-dimethylpropanoyl)oxy]methoxy}-9,19-difluoro-3,13-dioxo-2,4,7,11,14,17-hexaoxa-3λ^5,13λ^5-diphosphatricyclo[14.3.0.0^6,^10]nonadecan-3-yl]oxy}methyl 2,2-dimethylpropanoate] | 250 nM | 100 nM | 40 nM | 
2 | 250 nM | CC(C)OC(=O)OCOP1(=O)CO[C@H]2[C@@H](F)[C@H](n3cnc4c(N)ncnc43)O[C@@H]2COP(=O)(OCOC(=O)OC(C)C)O[C@H]2[C@@H](F)[C@H](n3cnc4c(N)ncnc43)O[C@@H]2CO1 (mixture of isomers) [Compound 42b, {[(1R,6R,8R,9R,10R,16R,18R,19R)-8,18-bis(6-amino-9H-purin-9-yl)-9,19-difluoro-3,13-dioxo-13-({[(propan-2-yloxy)carbonyl]oxy}methoxy)-2,4,7,11,14,17-hexaoxa-3λ^5,13λ^5-diphosphatricyclo[14.3.0.0^6,^10]nonadecan-3-yl]oxy}methyl propan-2-yl carbonate] | 2300 nM | 1300 nM | 1100 nM | 
3 | 10 nM | CCC(C)(C)C(=O)OCOP1(=O)CO[C@H]2[C@@H](F)[C@H](n3cnc4c(N)ncnc43)O[C@@H]2COP(=O)(OCOC(=O)C(C)(C)CC)O[C@H]2[C@@H](F)[C@H](n3cnc4c(N)ncnc43)O[C@@H]2CO1 (mixture of isomers) [Compound 44b, {[(1R,6R,8R,9R,10R,16R,18R,19R)-8,18-bis(6-amino-9H-purin-9-yl)-13-{[(2,2-dimethylbutanoyl)oxy]methoxy}-9,19-difluoro-3,13-dioxo-2,4,7,11,14,17-hexaoxa-3λ^5,13λ^5-diphosphatricyclo[14.3.0.0^6,^10]nonadecan-3-yl]oxy}methyl 2,2-dimethylbutanoate] | 200 nM | 200 nM | 200 nM | 
4 | 30 nM | CC1(C(=O)OCOP2(=O)CO[C@H]3[C@@H](F)[C@H](n4cnc5c(N)ncnc54)O[C@@H]3COP(=O)(OCOC(=O)C3(C)CCCCC3)O[C@H]3[C@@H](F)[C@H](n4cnc5c(N)ncnc54)O[C@@H]3CO2)CCCCC1 (mixture of isomers) [Compound 45b] | 70 nM | 20 nM | 20 nM | 
5 | 2 nM | CCCCCCCC(=O)OCOP1(=O)CO[C@H]2[C@@H](F)[C@H](n3cnc4c(N)ncnc43)O[C@@H]2COP(=O)(OCOC(=O)CCCCCCC)O[C@H]2[C@@H](F)[C@H](n3cnc4c(N)ncnc43)O[C@@H]2CO1 (mixture of isomers) [Compound 46b, {[(1R,6R,8R,9R,10R,16R,18R,19R)-8,18-bis(6-amino-9H-purin-9-yl)-9,19-difluoro-13-[(octanoyloxy)methoxy]-3,13-dioxo-2,4,7,11,14,17-hexaoxa-3λ^5,13λ^5-diphosphatricyclo[14.3.0.0^6,^10]nonadecan-3-yl]oxy}methyl octanoate] | 4 nM |  | 1 nM | 
6 |  | CCCCCCCCCCCC(=O)OCSP1(=O)OC[C@H]2O[C@@H](n3cnc4c(N)ncnc43)[C@H](F)[C@@H]2OCP(=O)(O)OC[C@H]2O[C@@H](n3cnc4c(N)ncnc43)[C@H](F)[C@@H]2O1 (single isomer, unassigned) [Compound 31b] | 800 nM | 300 nM | 500 nM | 
7 |  | CCCCCCCCCC(=O)OCSP1(=O)OC[C@H]2O[C@@H](n3cnc4c(N)ncnc43)[C@H](F)[C@@H]2OCP(=O)(O)OC[C@H]2O[C@@H](n3cnc4c(N)ncnc43)[C@H](F)[C@@H]2O1 (single isomer, unassigned) [Compound 36a] | 2500 nM | 1600 nM | 1200 nM | 
8 |  | CCCCCCCCCC(=O)OCSP1(=O)OC[C@H]2O[C@@H](n3cnc4c(N)ncnc43)[C@H](F)[C@@H]2OCP(=O)(O)OC[C@H]2O[C@@H](n3cnc4c(N)ncnc43)[C@H](F)[C@@H]2O1 (single isomer, unassigned) [Compound 36b] | 1000 nM | 500 nM | 800 nM | 
9 |  | CC(C)(C)C(=O)OCSP1(=O)CO[C@H]2[C@@H](F)[C@H](n3cnc4c(N)ncnc43)O[C@@H]2COP(=O)(SCOC(=O)C(C)(C)C)O[C@H]2[C@@H](F)[C@H](n3cnc4c(N)ncnc43)O[C@@H]2CO1 (single isomer, unassigned) [Compound 39a] |  |  |  | 1100 nM
10 |  | CC(C)(C)C(=O)OCSP1(=O)CO[C@H]2[C@@H](F)[C@H](n3cnc4c(N)ncnc43)O[C@@H]2COP(=O)(SCOC(=O)C(C)(C)C)O[C@H]2[C@@H](F)[C@H](n3cnc4c(N)ncnc43)O[C@@H]2CO1 (single isomer, unassigned) [Compound 39b] |  |  |  | 20 nM
11 |  | CC(C)(C)C(=O)OCSP1(=O)CO[C@H]2[C@@H](F)[C@H](n3cnc4c(N)ncnc43)O[C@@H]2COP(=O)(SCOC(=O)C(C)(C)C)O[C@H]2[C@@H](F)[C@H](n3cnc4c(N)ncnc43)O[C@@H]2CO1 (single isomer, unassigned) [Compound 39c] |  |  |  | 30 nM
12 |  | CC(C)OC(=O)OCSP1(=O)CO[C@H]2[C@@H](F)[C@H](n3cnc4c(N)ncnc43)O[C@@H]2COP(=O)(SCOC(=O)OC(C)C)O[C@H]2[C@@H](F)[C@H](n3cnc4c(N)ncnc43)O[C@@H]2CO1 (single isomer, unassigned) [Compound 40b] |  |  |  | 1200 nM
13 |  | CC(C)OC(=O)OCSP1(=O)CO[C@H]2[C@@H](F)[C@H](n3cnc4c(N)ncnc43)O[C@@H]2COP(=O)(SCOC(=O)OC(C)C)O[C@H]2[C@@H](F)[C@H](n3cnc4c(N)ncnc43)O[C@@H]2CO1 (single isomer, unassigned) [Compound 40c] |  |  |  | 3900 nM
14 | 40 nM | CC(C)(C)C(=O)OCOP1(=O)CO[C@H]2[C@@H](F)[C@H](n3cnc4c(N)ncnc43)O[C@@H]2COP(=O)(OCOC(=O)C(C)(C)C)O[C@H]2[C@@H](F)[C@H](n3cnc4c(N)ncnc43)O[C@@H]2CO1 (single isomer, unassigned) [Compound 41a] |  |  |  | 
15 | 11 nM | CC(C)(C)C(=O)OCOP1(=O)CO[C@H]2[C@@H](F)[C@H](n3cnc4c(N)ncnc43)O[C@@H]2COP(=O)(OCOC(=O)C(C)(C)C)O[C@H]2[C@@H](F)[C@H](n3cnc4c(N)ncnc43)O[C@@H]2CO1 (single isomer, unassigned) [Compound 41c] | 70 nM | 60 nM | 60 nM | 
16 | 8100 nM | CC(C)OC(=O)OCOP1(=O)CO[C@H]2[C@@H](F)[C@H](n3cnc4c(N)ncnc43)O[C@@H]2COP(=O)(OCOC(=O)OC(C)C)O[C@H]2[C@@H](F)[C@H](n3cnc4c(N)ncnc43)O[C@@H]2CO1 (single isomer, unassigned) [Compound 42a] |  |  |  | 
17 |  | Nc1nc2c(ncn2[C@@H]2O[C@@H]3COP(=O)(O)O[C@H]4[C@@H](O)[C@H](n5cnc6c(N)ncnc65)O[C@@H]4COP(=O)(O)O[C@@H]2[C@@H]3O)c(=O)[nH]1 [2′3′-cGAMP, reference compound] | 300000 nM | 164000 nM | 210000 nM | 
18 |  | CCCCCCCCCCCCOC(=O)OCSP1(=O)OC[C@H]2O[C@@H](n3cnc4c(N)ncnc43)[C@H](F)[C@@H]2OCP(=O)(O)OC[C@H]2O[C@@H](n3cnc4c(N)ncnc43)[C@H](F)[C@@H]2O1 (stereo partly drawn) [Compound 34b, (((2R,3R,3aR,7aR,9R,10R,10aR,15aR)-2,9-bis(6-amino-9H-purin-9-yl)-3,10-difluoro-13-hydroxy-5,13-dioxidodecahydro-2H-difuro[3,2-d:3′,2′-k][1,3,7,10]tetraoxa[2,8]diphosphacyclotridecin-5-yl)thio)methyl dodecyl carbonate] | 1300 nM | 500 nM | 700 nM | 
